Results reported in the supplement of paper PMC11061612.

What was measured:
Assay in all cases: Bliss excess, mean over the matrix (fraction); higher = more synergy
[1] = system: H9 (T-Cell Non-Hodgkin's Lymphoma)
Procedure, shortened: (§1)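 Cell lines grown in DMEM/F12 or RPMI with 10% FBS were plated in 1536-well plates and held 24 hours at 37°C, 5% CO2 before 72 hours of exposure to two-drug dose matrices, with DMSO typically at 0.2%. CellTiter-Glo 2.0 luminescence gave viability, which was converted to inhibition. Vehicle wells were set to 0 and blank wells to 1. Combination Emax is the second-highest inhibition in the matrix, and Bliss excess is the observed combination effect minus the expected EA + EB − EA·EB, where EA and EB are the single-agent effects.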

[2] = system: NCCIT (Other Solid Carcinomas)
Procedure, shortened: as §1

M059J (Glioblastoma) = system: M059J (Glioblastoma)
Procedure, shortened: as §1

[3] = system: ST486 (Burkitt's Lymphoma)
Procedure, shortened: as §1

[4] = system: SK-GT-2 (Gastric Carcinoma)
Procedure, shortened: as §1

[5] = system: DMS-114 (Small Cell Lung Carcinoma)
Procedure, shortened: as §1

[6] = system: KMS-12-BM (Plasma Cell Myeloma)
Procedure, shortened: as §1

[7] = system: CHSA8926 (Chondrosarcoma)
Procedure, shortened: as §1

[8] = system: NCI-H526 (Small Cell Lung Carcinoma)
Procedure, shortened: as §1

[9] = system: SNU-398 (Hepatocellular Carcinoma)
Procedure, shortened: as §1

[10] = system: HCC1187 (Breast Carcinoma)
Procedure, shortened: as §1

[11] = system: MOLM-13 (Acute Myeloid Leukemia)
Procedure, shortened: as §1

[12] = system: JHH-4 (Hepatocellular Carcinoma)
Procedure, shortened: as §1

[13] = system: CW-2 (Colorectal Carcinoma)
Procedure, shortened: as §1

[14] = system: NCI-H3122 (Lung Adenocarcinoma)
Procedure, shortened: as §1

[15] = system: DAN-G (Pancreatic Carcinoma)
Procedure, shortened: as §1

SJSA-1 (Osteosarcoma) = system: SJSA-1 (Osteosarcoma)
Procedure, shortened: as §1

[16] = system: VMRC-RCZ (Kidney Carcinoma)
Procedure, shortened: as §1

RD (Rhabdomyosarcoma) = system: RD (Rhabdomyosarcoma)
Procedure, shortened: as §1

[17] = system: HCC1419 (Breast Carcinoma)
Procedure, shortened: as §1

SMILES	Bliss excess [1]	Bliss excess [2]	Bliss excess (M059J (Glioblastoma))	Bliss excess [3]	Bliss excess [4]	Bliss excess [5]	Bliss excess [6]	Bliss excess [7]	Bliss excess [8]	Bliss excess [9]	Bliss excess [10]	Bliss excess [11]	Bliss excess [12]	Bliss excess [13]	Bliss excess [14]	Bliss excess [15]	Bliss excess (SJSA-1 (Osteosarcoma))	Bliss excess [16]	Bliss excess (RD (Rhabdomyosarcoma))	Bliss excess [17]
NC1(C(=O)N[C@@H](CCO)c2ccc(Cl)cc2)CCN(c2ncnc3[nH]ccc23)CC1 [Capivasertib] + C[C@@H]1COCCN1C2=NC(=NC(=C2)C3(CC3)[S@](=N)(=O)C)C4=C5C=CNC5=NC=C4 [AZD6738] (first compound max 10 µM, 7x7, partner max 10 µM)	0.0057	-0.0139	-0.0366	-0.0785	-0.001	-0.0067	0.0398	-0.0179	-0.0193	-0.0748	-0.0292	-0.02	0.0086	-0.0298	-0.0758	-0.0679	-0.0414	-0.0106	-0.0453	
CCc1c2c(nc3ccc(O)cc13)-c1cc3c(c(=O)n1C2)COC(=O)[C@]3(O)CC [SN-38] + O=C(c1cc(Cc2n[nH]c(=O)c3ccccc23)ccc1F)N1CCN(C(=O)C2CC2)CC1 [Olaparib] (first compound max 0.3 µM, 7x7, partner max 10 µM)	0.111	0.0062	0.0784	0.0826		0.0741		0.0247	0.0278	0.0008	0.0419			0.0293	0.0685		0.0423	0.0072		
NC1(C(=O)N[C@@H](CCO)c2ccc(Cl)cc2)CCN(c2ncnc3[nH]ccc23)CC1 [Capivasertib] + CC(=O)c1c(C)c2cnc(Nc3ccc(N4CCNCC4)cn3)nc2n(C2CCCC2)c1=O [Palbociclib] (first compound max 10 µM, 7x7, partner max 10 µM)	-0.0671	0.0183	-0.0489	-0.0616	0.0012	-0.0203	0.0977	-0.0171	-0.0331	-0.057	0.0279	-0.0098	-0.0242	0.0329	0.0266	-0.0581	-0.0445	0.0321	-0.0333	
CS(=O)(=O)CCNCc1ccc(-c2ccc3ncnc(Nc4ccc(OCc5cccc(F)c5)c(Cl)c4)c3c2)o1 [Lapatinib] + Cn1cnc2c(F)c(Nc3ccc(Br)cc3Cl)c(C(=O)NOCCO)cc21 [Selumetinib] (first compound max 10 µM, 7x7, partner max 10 µM)		-0.0596	-0.0403	0.0111		-0.044			0.0154					0.003	0.0083		-0.0364	-0.0149		
COc1cc2ncnc(Nc3ccc(F)c(Cl)c3)c2cc1OCCCN1CCOCC1 [Gefitinib] + CC(C)n1c(=O)n(C)c2cnc3cc(F)c(-c4ccc(OCCCN5CCCCC5)nc4)cc3c21 [AZD1390] (first compound max 10 µM, 7x7, partner max 0.3 µM)	-0.0723	-0.0466	-0.0325	-0.0874	-0.0382	-0.0579	-0.0267	-0.113	-0.0342	-0.0627	-0.04	-0.0462	-0.0751	-0.031	-0.0775		-0.0562	-0.0621	-0.0699	-0.0216
CC(=O)c1c(C)c2cnc(Nc3ccc(N4CCNCC4)cn3)nc2n(C2CCCC2)c1=O [Palbociclib] + Cn1cnc2c(F)c(Nc3ccc(Br)cc3Cl)c(C(=O)NOCCO)cc21 [Selumetinib] (first compound max 10 µM, 7x7, partner max 10 µM)	-0.0868	-0.0291	-0.0441	0.151	-0.0175	-0.0065	0.0219	-0.0697	-0.0213	-0.0388	-0.0142	0.0262	-0.0336	0.0099	-0.0306	-0.0077	-0.038	-0.0367	0.0455	
CC(=O)c1c(C)c2cnc(Nc3ccc(N4CCNCC4)cn3)nc2n(C2CCCC2)c1=O [Palbociclib] + CC1(C)CCC(CN2CCN(c3ccc(C(=O)NS(=O)(=O)c4ccc(NCC5CCOCC5)c([N+](=O)[O-])c4)c(Oc4cnc5[nH]ccc5c4)c3)CC2)=C(c2ccc(Cl)cc2)C1 [Venetoclax] (first compound max 10 µM, 7x7, partner max 1 µM)	-0.0394	-0.0412	-0.0511	-0.0755	-0.0342	-0.0282	0.0637	-0.0232	-0.0033	0.0232	-0.0079	0.04	-0.0003	0.0067	-0.0335	-0.0324	-0.0295	-0.0479	-0.0486	
Cc1nc(Nc2ncc(C(=O)Nc3c(C)cccc3Cl)s2)cc(N2CCN(CCO)CC2)n1 [Dasatinib] + CC(=O)Nc1cccc(-n2c(=O)n(C3CC3)c(=O)c3c(Nc4ccc(I)cc4F)n(C)c(=O)c(C)c32)c1 [Trametinib] (first compound max 2 µM, 7x7, partner max 1 µM)	-0.193	-0.0842	-0.0946	-0.0987	-0.0013	-0.0036	-0.0046	-0.194	-0.0323	-0.0842	-0.0367	0.0284	-0.116	0.0129	-0.0651	0.138	0.0005	-0.0257	0.188	
NC1(C(=O)N[C@@H](CCO)c2ccc(Cl)cc2)CCN(c2ncnc3[nH]ccc23)CC1 [Capivasertib] + CCN(CCO)CCCOc1ccc2c(Nc3cc(CC(=O)Nc4cccc(F)c4)[nH]n3)ncnc2c1 [AZD2811] (first compound max 10 µM, 7x7, partner max 1 µM)	-0.0361	0.0475	-0.0328	-0.0396	-0.0239	0.0039	0.0502	-0.0687	-0.0052	0.0216	-0.0597	-0.0086	-0.0088	-0.0348	-0.0428	0.004	-0.0297	-0.046	-0.0211	
NC1(C(=O)N[C@@H](CCO)c2ccc(Cl)cc2)CCN(c2ncnc3[nH]ccc23)CC1 [Capivasertib] + Cn1cnc2c(F)c(Nc3ccc(Br)cc3Cl)c(C(=O)NOCCO)cc21 [Selumetinib] (first compound max 10 µM, 7x7, partner max 10 µM)	0.0271	0.059	-0.0162	0.0217	0.063	0.0203	0.0441	0.034	0.0296	0.0287	0.0534	0.0677	-0.0762	-0.0035	0.092	-0.002	-0.0321	-0.0066	0.0942	
NC1(C(=O)N[C@@H](CCO)c2ccc(Cl)cc2)CCN(c2ncnc3[nH]ccc23)CC1 [Capivasertib] + COc1nnc2ccc(N3CCC(c4ccc(OCCN5CCN(C)C(=O)[C@H]5C)cc4)CC3)nn12 [AZD5153] (first compound max 10 µM, 7x7, partner max 1 µM)	-0.0047	0.0382	-0.0266	-0.0552	0.0448	0.0259	0.0409	0.0617	-0.0213	0.0733	0.0491	0.0145	0.0028	0.0459	-0.0131	0.0578	-0.0184	0.0171	0.0116	
CC(=O)Nc1cccc(-n2c(=O)n(C3CC3)c(=O)c3c(Nc4ccc(I)cc4F)n(C)c(=O)c(C)c32)c1 [Trametinib] + Cc1nc(-c2cn3c(n2)-c2ccc(-c4cnn(C(C)(C)C(N)=O)c4)cc2OCC3)n(C(C)C)n1 [Taselisib] (first compound max 1 µM, 7x7, partner max 10 µM)	0.0402	0.0184	0.0493	-0.033	0.134	0.079	0.103		-0.0308	0.0676	0.0462	0.215	0.0462	0.122	0.116	0.124	0.0501	0.0186	0.261	0.032
NC1(C(=O)N[C@@H](CCO)c2ccc(Cl)cc2)CCN(c2ncnc3[nH]ccc23)CC1 [Capivasertib] + CC(C)n1c(=O)n(C)c2cnc3cc(F)c(-c4ccc(OCCCN5CCCCC5)nc4)cc3c21 [AZD1390] (first compound max 10 µM, 7x7, partner max 0.3 µM)	-0.0341	-0.0628	0.0135	-0.0363	-0.0342	-0.0465	-0.0274	-0.111	0.0062	-0.0579	-0.0424	-0.067	-0.0504	-0.0469	-0.0304	-0.111	-0.0843	-0.035	-0.0146	
CS(=O)(=O)CCNCc1ccc(-c2ccc3ncnc(Nc4ccc(OCc5cccc(F)c5)c(Cl)c4)c3c2)o1 [Lapatinib] + C[C@@H](Oc1cc(-c2cnn(C3CCNCC3)c2)cnc1N)c1c(Cl)ccc(F)c1Cl [Crizotinib] (first compound max 10 µM, 7x7, partner max 10 µM)	-0.0249	0.0045	-0.0733	-0.0366	-0.0154	-0.017	0.0256	-0.0231	0.0069	-0.0451	-0.0156	0.0308	0.0041	-0.0146	0.0001	0.0148	-0.017	-0.0291	-0.0253	
CC(=O)c1c(C)c2cnc(Nc3ccc(N4CCNCC4)cn3)nc2n(C2CCCC2)c1=O [Palbociclib] + Cc1c2c(nn1C)CSCc1cc(n(C)n1)CSc1cc(c3ccccc3c1)OCCCc1c(C(=O)O)n(C)c3c-2c(Cl)ccc13 [AZD5991] (first compound max 10 µM, 7x7, partner max 1 µM)	-0.0795	-0.0538	-0.0303	-0.0457	-0.021	-0.0083	0.035	-0.0807	0.0026	0.0128	0.0023	-0.0314	-0.0518	-0.0111	-0.0217	-0.0356	-0.0426	-0.026	0.0077	
